Laboratory results as given in patent US20110256557A1, “IDENTIFYING PARATHYROID HORMONE AGONISTS AND ANTAGONISTS” (DISCOVERYBIOMED, INC., priority 2008, published 2011).

What was measured:
[1] = system: TCF/LEF luciferase reporter; experiment: High-throughput screen validation, TCF/LEF luciferase reporter in osteosarcoma cell line; format: cell-based
Protocol: Osteosarcoma cells were plated in a 96 well plate. The cells were transiently transfected with the TCF/LEF luciferase reporter using LipofectAMINE PLUS (Invitrogen; Carlsbad, Calif.). The cells were incubated overnight at 37° C. in OptiMEM-1 serum-free medium with the transfection reagents. The cells were washed and serum-containing medium was added to the cells for 8 hours. The serum-containing medium was replaced with serum-free medium and the cells were stimulated overnight with PTH and WNT3a. Supernatant from the stimulated cells was collected for detection of osteosclerostin, and the cells were subjected to a luciferase assay as previously described (Wan et al., Am. J. Pathol. 166:1379-92 (2005)).
To determine agonists and antagonists of the additive signaling of the PTH receptor and the WNT receptor, (as well as any co-receptors) in bone cells, a high-throughput screen is designed. […] An osteosarcoma cell line is transiently transfected with a TCF/LEF luciferase reporter. The cells are treated with WNT3a and PTH and luciferase activity is determined (FIG. 46).

[2] = system: β-catenin; experiment: Western blot of cytosolic β-catenin in HEK 293 cells; format: cell-based; settings: HEK 293 cells; concentration- and time-dependent
Protocol: (§1) Cells were harvested in cavitation buffer (5 mM HEPES, pH 7.4, 3 mM MgCl2, 1 mM EGTA, 250 mM sucrose) containing protease and phosphatase inhibitors and homogenized by nitrogen cavitation (200 p.s.i., for 5 minutes) in a cell disruption bomb (Parr Instrument Co.; Moline, Ill.). The cell homogenate was centrifuged twice at 700 g for 10 minutes to pellet the nuclei. The supernatant was further centrifuged at 100,000 g (Beckman SW50.1 rotor) for 1 hour to separate the membrane and cytosol fractions, and the resulting membrane pellet was washed three times with cavitation buffer before use in the assays (Zhang et al., Biochem. J. 343:541-9 (1999)). Immunoprecipitation and Western blot analysis of cell lysates were performed as described previously (Wan et al., Am. J. Pathol. 166:1379-92 (2005)).

[3] = target: T1, LRP6-PTH1R complex (Rattus norvegicus, UniProt P25961); experiment: Co-immunoprecipitation of endogenous LRP6 and PTH1R in UMR-106 cells; format: cell-based; settings: IP with antibodies to LRP6, time-dependent
T1 construct: endogenous LRP6 and endogenous PTH1R in UMR-106 cells; endogenous in cells; host or cells: UMR-106
T1 sequence (P25961 27-591): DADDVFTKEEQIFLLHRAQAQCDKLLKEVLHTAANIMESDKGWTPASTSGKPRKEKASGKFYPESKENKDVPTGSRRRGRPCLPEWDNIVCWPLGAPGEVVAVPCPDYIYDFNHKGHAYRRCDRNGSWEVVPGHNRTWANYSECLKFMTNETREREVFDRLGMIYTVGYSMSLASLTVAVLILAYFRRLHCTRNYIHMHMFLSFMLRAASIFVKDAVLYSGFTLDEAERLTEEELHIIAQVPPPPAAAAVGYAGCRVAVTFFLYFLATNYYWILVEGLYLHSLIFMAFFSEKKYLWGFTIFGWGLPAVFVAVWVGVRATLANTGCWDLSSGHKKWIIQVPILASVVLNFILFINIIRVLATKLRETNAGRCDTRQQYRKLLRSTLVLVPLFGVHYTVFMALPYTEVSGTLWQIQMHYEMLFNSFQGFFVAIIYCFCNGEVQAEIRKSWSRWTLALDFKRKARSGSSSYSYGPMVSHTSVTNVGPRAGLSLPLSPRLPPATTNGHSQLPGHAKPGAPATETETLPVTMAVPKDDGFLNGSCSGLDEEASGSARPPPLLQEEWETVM
Protocol: as §1

[4] = system: luciferase reporter bearing TCF/LEF binding elements; experiment: TCF/LEF luciferase reporter assay in UMR-106 cells; format: cell-based, rat; settings: UMR-106 cells, agent alone
From the text: HEK293, UMR-106 and mouse embryonic fibroblast (MEF) cells were maintained in Dulbecco's Modified Eagle Medium (DMEM) with 10% Fetal Calf Serum (FCS). Mouse Wnt3a conditioned medium (Wnt3a CM) was produced from mouse L cells stably transfected with mouse Wnt3a (American Type Culture Collection; Manassas, Va.) and control conditioned medium (Control CM) was from non-transfected L cells. IgG, LRP6N-IgG, DKK1, Sclerostin, VSVG-LRP6N and Myc-Fz8CRD conditioned media were produced from HEK 293 cells transfected with the individual plasmids. Transfections were carried out using lipofectamine reagent (Invitrogen; Carlsbad, Calif.). Luciferase assays were carried out in either UMR-106 or HEK 293 cells as described previously (Wan et al., Am. J. Pathol. 166:1379-92 (2005)), with 0.3 μg of TCF-Luc reporter plasmid plus 50 ng of Renilla luciferase plasmid (internal control) per well in the 12-well plate. Experiments were repeated at least three times with triplicate for each experiment.

[5] = system: axin-LRP6 binding; experiment: Co-IP of axin binding to LRP6 in HEK293 cells; format: cell-based; settings: co-IP, HEK293 cells
Protocol: as §1

**Q.** For Parathyroid hormone [PTH], which “stimulation of the TCF/LEF luciferase reporter, treatment alone” value ([1]; 96-well plate) is on record?
**A.** Its value is “does not stimulate”.

**Q.** And the “effect on WNT stimulation of the TCF/LEF luciferase reporter” value ([1]; PTH and WNT3a treatment)?
**A.** The value was “potentiates”.

**Q.** And the “levels of β-catenin in the cytosol” value [2]?
**A.** Its value is “enhanced”.

**Q.** And the “complex formation of PTH1R with endogenous LRP6” value [3]?
**A.** Its value is “formed a complex with endogenous LRP6 in response to PTH in a time-dependent manner”.

**Q.** What about the “transcription of a luciferase reporter bearing TCF/LEF binding elements” value [4] of the same substance?
**A.** Its value is “stimulated”.

**Q.** What about the “binding of axin to LRP6” value [5] of the same substance?
**A.** Its value is “rapidly increased”.
